The test system of one experiment is hippocampal neurons. The experiment in a line: Morphometric analyses (total dendritic length, Sholl analysis, spines) of cultured hippocampal neurons. The experiment is classed as cell-based, C57BL/6 mice. The procedure:
Hippocampal cultures and transfection. Hippocampal neurons from newborn C57BL/6 mice were cultured as known in the art. Experiments were done after a culturing period of 10 to 14 days in vitro (DIV). DNA transfection was done on DIV8 using Lipofectamine 2000 (Invitrogen, San Diego, CA). For the studies on dendrite morphology, neurons were analyzed 4-5 days after transfection.
Morphometric analyses. For 3D Sholl Analysis, total dendritic length and spine morphology were calculated using Object-Image freeware software with a specific set of macros (written by Dr. E. Ruthazer, McGill University, Quebec). Briefly, a z-Stack acquisition was imported, calibrated in Object-Image and manually traced. Total dendritic length was then computed. For Sholl analysis, the shell interval was set at 5 µm. All analyses were performed blind. In all in vitro experiments, for each condition, a minimum of 12 neurons from three independent preparations was analyzed. For the Golgi staining quantifications of 20 neurons for each condition from 4 different injected animals per viral construct were traced and analyzed. MEA recordings. […]
Immunocytochemistry. […] For the morphometric analyses, fluorescence images were acquired using a confocal laser-scanning microscope TCS SP2 (Leica, Mannheim, Germany) equipped with an inverted fluorescence microscope DM IRE2 (Leica) and Leica confocal scan software. […]

A further experiment concerns VEGFD. The experiment in a line: qRT-PCR analysis of VEGFD expression in cultured hippocampal neurons. Format: cell-based, mouse. The protocol:
RNA extraction and cDNA synthesis. Total RNA was isolated at DIV10 to DIV13 from hippocampal primary neuron cultures or isolated brain tissues with Rneasy Mini Kit (Qiagen, Hilden, Germany) including an optional Dnase I treatment at room temperature for 15 min according to manufacturer's instructions (Qiagen). 1.2 µg of extracted RNA was reverse transcribed into first strand cDNA using High Capacity cDNA Reverse Transcription kit (Applied Biosystems, Foster City, CA).
Real time quantitative PCR. Quantitative reverse transcriptase PCR (qRT-PCR) was done on an ABI7300 thermal cycler using Universal qRT-PCR master mix with TaqMan Gene Expression Assays for the indicated genes (Applied Biosystems). The following TaqMan Gene Expression Assays were used in this study: Gusb (Mm00446953_m1), cFos (Mm00487425_m1), VEGFD (Mm00438965_m1), VEGFC (Mm01202432_m1), VEGF (Mm01281449_m1), VEGFR3 (Mm01292618_m1), beta-actin (Mm00607939_s1), beta-2 microglobulin (Mm00437762_m1), CBP (Mm01342435_m1), p38 MAPK alpha (Mm00442497_m1), p38 MAPK beta (Mm00440955_m1). Expression of target genes was normalized against the expression of Gusb as endogenous control gene. Data were derived from at least 5 independent experiments.
A general note: In qPCR the cycle at which signal appears reflects the starting amount.

The next experiment relates to cFos. The experiment in a line: qRT-PCR analysis of cFos expression in cultured hippocampal neurons.
A further experiment relates to VEGFC. The experiment in a line: qRT-PCR analysis of VEGFC expression in cultured hippocampal neurons.

On to `C[S+]([O-])c1ccc(-c2nc(-c3ccncc3)c(-c3ccc(F)cc3)[nH]2)cc1` (stereo not drawn) [SB203580], for which the “effect on rVEGFD-induced rescue of dendrite length and complexity” value with hippocampal neurons (neurons expressing CaMBP4 (and CaMKIVK75E), treated 3 days with rVEGFD) was “severely compromised the ability of rVEGFD to rescue the impairment of dendrite length and complexity”. Besides, in the experiment on hippocampal neurons (neurons expressing hrGFP, CaMBP4 or CaMKIVK75E, treated with SB203580 without rVEGFD), the Sholl analysis entry was “no difference compared to the respective untreated controls”.

With `C[C@]12N[C@H](Cc3ccccc31)c1ccccc12` [MK801], the “expression of VEGFD mRNA” value in the experiment on VEGFD (10 µM MK801, 10 µM nifedipine or both, DIV5 to DIV10) is given as “significantly reduced the expression of VEGFD mRNA”.

Turning to `CN1CCc2cc3c(cc2[C@H]1[C@@H]1OC(=O)c2c1ccc1c2OCO1)OCO3` [Bicuculline], the “VEGFD mRNA levels” value in the experiment on VEGFD is “did not alter VEGFC or VEGFD mRNA levels”. The “cFos mRNA” value in the experiment with cFos is “robust induction of cFos mRNA”. Moreover, the “VEGFC mRNA levels” value in the experiment with VEGFC is “did not alter VEGFC or VEGFD mRNA levels”.

These data come from patent EP2529745A1, “VEGF-D/VEGFR mediated regulation of dendrites” (Universität Heidelberg, priority 2011, dated 2012).
